The values that follow come from patent US20260274856A1, “COVALENT CEREBLON LIGANDS” (C4 THERAPEUTICS, INC., priority 2023, published 2026).

The assay addresses mutant BRAF V600E (Homo sapiens, UniProt P15056, V600E). Kind of assay: BRAF V600E HiBiT Degradation Assay in A375.10 cells. To be noted: for HiBIT-Degradation A375.10 BRAF 2 hours IP nM / HiBIT-Degradation A375.10 BRAF 24 hours IP nM: inflection point of the dose-response curve. (In general: The HiBiT peptide binds its large partner to form an active luciferase.)
Where [1] appears, read: read-out: HIBIT-Degradation A375.10 BRAF 2 hours DC50 nM, 2 hours, A375.10 cells.
Setting [2] is: read-out: HiBIT-Degradation A375.10 BRAF 2 hours Emax.
The mark [3] stands for this setting: read-out: HiBIT-Degradation A375.10 BRAF 24 hours DC50 nM, 24 hours, A375.10 cells.
[4] abbreviates: read-out: HiBIT-Degradation A375.10 BRAF 24 hours Emax.

Like-named read-outs stand apart in the source and are kept apart here.

mutant BRAF V600E, sequence (P15056 whole entry V600E): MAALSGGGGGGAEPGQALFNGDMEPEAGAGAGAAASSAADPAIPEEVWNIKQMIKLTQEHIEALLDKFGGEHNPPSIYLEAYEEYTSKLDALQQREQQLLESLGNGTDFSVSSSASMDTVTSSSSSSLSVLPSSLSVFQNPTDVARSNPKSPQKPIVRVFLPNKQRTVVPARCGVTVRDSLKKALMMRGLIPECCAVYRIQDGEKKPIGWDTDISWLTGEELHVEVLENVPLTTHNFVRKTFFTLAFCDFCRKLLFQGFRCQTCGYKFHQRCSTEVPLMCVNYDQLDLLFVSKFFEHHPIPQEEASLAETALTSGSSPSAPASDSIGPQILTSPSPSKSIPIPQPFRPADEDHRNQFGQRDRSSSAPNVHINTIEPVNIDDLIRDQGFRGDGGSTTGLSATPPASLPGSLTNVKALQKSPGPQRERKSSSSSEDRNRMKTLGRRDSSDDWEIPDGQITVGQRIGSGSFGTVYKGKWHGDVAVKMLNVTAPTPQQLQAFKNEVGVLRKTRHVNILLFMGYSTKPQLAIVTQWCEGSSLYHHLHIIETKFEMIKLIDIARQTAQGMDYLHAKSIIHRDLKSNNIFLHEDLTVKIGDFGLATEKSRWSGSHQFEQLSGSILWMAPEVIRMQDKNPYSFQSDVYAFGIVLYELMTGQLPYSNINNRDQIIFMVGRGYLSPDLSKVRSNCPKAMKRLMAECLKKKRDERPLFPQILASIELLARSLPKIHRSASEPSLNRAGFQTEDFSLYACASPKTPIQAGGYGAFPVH
Protocol: Compounds of this invention were tested for degradation of mutant BRAF V600E using the HiBiT assay, a luminescence-based assay for quantification of cellular protein levels using the Nano-Glo@HiBiT Lytic Detection System (Catalog No. N3050, Promega, Madison, WI USA). This assay utilizes the HiBiT tag on a protein of interest, which creates a luminescent signal in the presence of a complementing peptide and its substrate, the quantification of which 10 is proportional to the amount of HiBiT-tagged protein in the cell.
A375 cells were engineered to express HiBiT tagged BRAF V600E by CRISPR knock-in of the HiBiT tag to the endogenous BRAF V600E locus, followed by selection of a clonal population containing 15 the appropriate knock-in (referred to here as cell line A375.10). […] Cell culture flasks and 384-well microplates 20 were acquired from VWR (Radnor, PA, USA).
Plates were then spun briefly, and cells were incubated with compound at 37° C. for 2 hoursor 24 hours.
Following the appropriate treatment time, Nano-Glo® HiBiT Lytic Assay reagents were added to the cells per the manufacturer's instructions by adding 30ul of reagent per well, and 10 the luminescence signal was acquired by plate reader. Cells treated with DMSO only (no test compound treatment) were used as the negative control (N). Media only (no cells added) with Nano-Glo reagent addition was used as the background or positive control (P). The percent response of compound treated samples were calculated by subtracting out the background signal (P) and normalizing to the DMSO control (N) as follows. % Response=100 x (Treated Signal - Average (P))/(Average (N) - Average (P)).
Data were analyzed with a 4-parameter logistic fit to generate sigmoidal dose-response curves. […] The Emax, or maximum effect of each compound, represents the amount of residual protein remaining in the cell following compound treatment.
The experiment was conducted at least once for each compound. If the experiment was conducted multiple times, the data shown in the table is the average of the two or more experiments.

Usually DC50 stands for the concentration giving 50% degradation. Usually Emax stands for the size of the effect at its maximum, as opposed to the concentration needed. In the case of `CCN(C)S(=O)(=O)Nc1ccc(F)c(Oc2ccc3ncn([C@H]4COC5(CCN(C(=O)CN6CCC(c7ccc(OC8CCC(=O)NC8=O)cc7OS(=O)(=O)F)CC6)CC5)C4)c(=O)c3c2)c1C#N` (stereo partly drawn) [drawing 1196], for the setting “2 hours, A375.10 cells”, the “HiBIT-Degradation A375.10 BRAF 2 hours IP nM” value is on record as “*** (<= 1 μM is)”. Also, the DC50 under setting [1] was in the range of 1000 to 10000 nM. Also, the Emax under setting [2] was under 60%.
Turning to `CCN(C)S(=O)(=O)Nc1ccc(F)c(Oc2ccc3ncn([C@H]4COC5(CCN(C(=O)CN6CCC(c7ccc(NC8CCC(=O)NC8=O)cc7S(=O)(=O)F)CC6)CC5)C4)c(=O)c3c2)c1C#N` (stereo partly drawn) [drawing 1197], the “HiBIT-Degradation A375.10 BRAF 2 hours IP nM” value (2 hours, A375.10 cells) is on record as “*** (<= 1 μM is)”. In addition, the half-maximal degradation concentration (DC50) under setting [1] was over 10000 nM. Besides, the maximum response (Emax) under setting [2] fell in the range of 60 to 95%.
The like results for `CCN(C)S(=O)(=O)Nc1ccc(F)c(Oc2ccc3ncn([C@@H]4COC5(CCN(C(=O)CN6CCC(c7ccc(OC8CCC(=O)NC8=O)cc7S(=O)(=O)F)CC6)CC5)C4)c(=O)c3c2)c1C#N` (stereo partly drawn) [drawing 1198] were, in that order, “*** (<= 1 μM is)”, 1000 to 10000 nM and 60 to 95%.
With `CCN(C)S(=O)(=O)Nc1ccc(F)c(Oc2ccc3ncn([C@H]4COC5(CCN(C(=O)CN6CCN(c7ccc(C8CCC(=O)NC8=O)cc7OS(=O)(=O)F)CC6)CC5)C4)c(=O)c3c2)c1C#N` (stereo partly drawn) [drawing 1199], for the setting “2 hours, A375.10 cells”, the “HiBIT-Degradation A375.10 BRAF 2 hours IP nM” value is “*** (<= 1 μM is)”. In addition, the “HiBIT-Degradation A375.10 BRAF 2 hours Emax” value (2 hours, A375.10 cells, residual protein remaining) is on record as “*** (<= 60% is)”. The DC50 under setting [1] is over 10000 nM.
Turning to `CCN(C)S(=O)(=O)Nc1ccc(F)c(Oc2ccc3ncn([C@H]4COC5(CCN(C(=O)CN6CCC(c7ccc(OC8CCC(=O)NC8=O)cc7S(=O)(=O)F)CC6)CC5)C4)c(=O)c3c2)c1C#N` (stereo partly drawn) [drawing 1200], under “2 hours, A375.10 cells”, the “HiBIT-Degradation A375.10 BRAF 2 hours IP nM” value is recorded as “*** (<= 1 μM is)”. Further, the 50% degradation concentration (DC50) under setting [1] was 1000 to 10000 nM. Also, the Emax under setting [2] is 60 to 95%.
For `CCN(C)S(=O)(=O)Nc1ccc(F)c(Oc2ccc3ncn([C@@H]4COC5(CCN(C(=O)CN6CCC(c7ccc(OC8CCC(=O)NC8=O)cc7OS(=O)(=O)F)CC6)CC5)C4)c(=O)c3c2)c1C#N` (stereo partly drawn) [drawing 1201], the “HiBIT-Degradation A375.10 BRAF 2 hours IP nM” value (2 hours, A375.10 cells) is on record as “*** (<= 1 μM is)”. For the same compound, the half-maximal degradation concentration (DC50) under setting [1] was 1000 to 10000 nM. Moreover, the Emax under setting [2] lay within 60 to 95%.
The like results for `CCN(C)S(=O)(=O)Nc1ccc(F)c(Oc2ccc3ncn([C@H]4COC5(CCN(C(=O)CN6CCC(c7ccc(NC8CCC(=O)NC8=O)cc7OS(C)(=O)=O)CC6)CC5)C4)c(=O)c3c2)c1C#N` (stereo partly drawn) [drawing 1202] were, in that order, “*** (<= 1 μM is)”, 1000 to 10000 nM and under 60%.
The like results for `CCN(C)S(=O)(=O)Nc1ccc(F)c(Oc2ccc3ncn([C@@H]4COC5(CCN(C(=O)CN6CCC(c7ccc(N8CCC(=O)NC8=O)cc7OS(C)(=O)=O)CC6)CC5)C4)c(=O)c3c2)c1C#N` [drawing 1203] were, in that order, “*** (<= 1 μM is)”, over 10000 nM and under 60%.
The like results for `CCN(C)S(=O)(=O)Nc1ccc(F)c(Oc2ccc3ncn([C@H]4COC5(CCN(C(=O)CN6CCC(c7ccc(OC8CCC(=O)NC8=O)cc7OS(C)(=O)=O)CC6)CC5)C4)c(=O)c3c2)c1C#N` (stereo partly drawn) [drawing 1204] were, in that order, “*** (<= 1 μM is)”, 1000 to 10000 nM and under 60%.
In the case of `CCN(C)S(=O)(=O)Nc1ccc(F)c(Oc2ccc3ncn([C@H]4COC5(CCN(C(=O)CN6CCC(c7ccc(N8CCC(=O)NC8=O)cc7OS(C)(=O)=O)CC6)CC5)C4)c(=O)c3c2)c1C#N` [drawing 1205], the “HiBIT-Degradation A375.10 BRAF 2 hours IP nM” value (2 hours, A375.10 cells) was “** (<10 μM and >1 μM is **)”. The DC50 under setting [1] is 1000 to 10000 nM. The Emax under setting [2] was under 60%.
Consider `CCN(C)S(=O)(=O)Nc1ccc(F)c(Oc2ccc3ncn([C@@H]4COC5(CCN(C(=O)CN6CCC(c7ccc(OC8CCC(=O)NC8=O)cc7OS(C)(=O)=O)CC6)CC5)C4)c(=O)c3c2)c1C#N` (stereo partly drawn) [drawing 1206], for which the “HiBIT-Degradation A375.10 BRAF 2 hours IP nM” value (2 hours, A375.10 cells) was “** (<10 μM and >1 μM is **)”. Further, the DC50 under setting [1] is over 10000 nM. For the same compound, the maximal effect (Emax) under setting [2] is 60 to 95%.
As for `CCN(C)S(=O)(=O)Nc1ccc(F)c(Oc2ccc3ncn([C@@H]4COC5(CCN(C(=O)CN6CCC(c7ccc(C8CCC(=O)NC8=O)cc7OS(C)(=O)=O)CC6)CC5)C4)c(=O)c3c2)c1C#N` (stereo partly drawn) [drawing 1207], for the setting “2 hours, A375.10 cells”, the “HiBIT-Degradation A375.10 BRAF 2 hours IP nM” value was “** (<10 μM and >1 μM is **)”. Moreover, under setting [1], the half-maximal degradation concentration (DC50) is over 10000 nM. Also, the maximal response (Emax) under setting [2] is under 60%.
For `CCN(C)S(=O)(=O)Nc1ccc(F)c(Oc2ccc3ncn([C@@H]4COC5(CCN(C(=O)CN6CCC(c7ccc(NC8CCC(=O)NC8=O)cc7OS(C)(=O)=O)CC6)CC5)C4)c(=O)c3c2)c1C#N` (stereo partly drawn) [drawing 1208], where the note is “2 hours, A375.10 cells”, the “HiBIT-Degradation A375.10 BRAF 2 hours IP nM” value was “** (<10 μM and >1 μM is **)”. Under setting [1], the DC50 is over 10000 nM. Further, the Emax under setting [2] lay within 60 to 95%.
As for `CCN(C)S(=O)(=O)Nc1ccc(F)c(Oc2ccc3ncn([C@@H]4COC5(CCN(C(=O)CN6CCC(c7ccc(NC8CCC(=O)NC8=O)cc7S(=O)(=O)F)CC6)CC5)C4)c(=O)c3c2)c1C#N` (stereo partly drawn) [drawing 1209], under “2 hours, A375.10 cells”, the “HiBIT-Degradation A375.10 BRAF 2 hours IP nM” value was “* (>=10 μM is *)”. For the same compound, the half-maximal degradation concentration (DC50) under setting [1] is over 10000 nM. Besides, the Emax under setting [2] fell in the range of 60 to 95%.
In the case of `CCN(C)S(=O)(=O)Nc1ccc(F)c(Oc2ccc3ncn([C@@H]4COC5(CCN(C(=O)CN6CCC(c7ccc(C8CCC(=O)NC8=O)cc7OS(=O)(=O)F)CC6)CC5)C4)c(=O)c3c2)c1C#N` (stereo partly drawn) [drawing 1210], where the note is “24 hours, A375.10 cells”, the “HiBIT-Degradation A375.10 BRAF 24 hours IP nM” value was “*** (<= 1 μM is ***)”. Besides, the DC50 under setting [3] was under 1000 nM. Moreover, the maximal response (Emax) under setting [4] is under 60%.
The like results for `CCN(C)S(=O)(=O)Nc1ccc(F)c(Oc2ccc3ncn([C@H]4COC5(CCN(C(=O)CN6CCC(c7ccc(C8CCC(=O)NC8=O)cc7OS(=O)(=O)F)CC6)CC5)C4)c(=O)c3c2)c1C#N` (stereo partly drawn) [drawing 1211] were, in that order, “*** (<= 1 μM is ***)”, under 1000 nM and under 60%.
The like results for `CCN(C)S(=O)(=O)Nc1ccc(F)c(Oc2ccc3ncn([C@H]4COC5(CCN(C(=O)CN6CCN(c7ccc(C8CCC(=O)NC8=O)cc7OS(=O)(=O)F)CC6)CC5)C4)c(=O)c3c2)c1C#N` (stereo partly drawn) [drawing 1212] were, in that order, “*** (<= 1 μM is ***)”, under 1000 nM and under 60%.
The like results for `CCN(C)S(=O)(=O)Nc1ccc(F)c(Oc2ccc3ncn([C@H]4COC5(CCN(C(=O)CN6CCN(c7ccc(N8CCC(=O)NC8=O)cc7OS(=O)(=O)F)CC6)CC5)C4)c(=O)c3c2)c1C#N` [drawing 1213] were, in that order, “*** (<= 1 μM is ***)”, 1000 to 10000 nM and under 60%.
Turning to `CCN(C)S(=O)(=O)Nc1ccc(F)c(Oc2ccc3ncn([C@H]4COC5(CCN(C(=O)CN6CCC(c7ccc(OC8CCC(=O)NC8=O)cc7OS(=O)(=O)F)CC6)CC5)C4)c(=O)c3c2)c1C#N` (stereo partly drawn) [drawing 1214], where the note is “24 hours, A375.10 cells”, the “HiBIT-Degradation A375.10 BRAF 24 hours IP nM” value is listed as “*** (<= 1 μM is ***)”. Under setting [3], the DC50 is under 1000 nM. The maximal response (Emax) under setting [4] is under 60%.
The like results for `CCN(C)S(=O)(=O)Nc1ccc(F)c(Oc2ccc3ncn([C@H]4COC5(CCN(C(=O)CN6CCC(c7ccc(NC8CCC(=O)NC8=O)cc7S(=O)(=O)F)CC6)CC5)C4)c(=O)c3c2)c1C#N` (stereo partly drawn) [drawing 1215] were, in that order, “*** (<= 1 μM is ***)”, under 1000 nM and under 60%.
